In patent US20040265847A1, “Method for treating Alzheimer's disease” (priority 1991, published 2004):
Square brackets hold non-standard residues; d marks the D form. Peptide text beside a SMILES is read from it. * marks the point of attachment. Sta = CC(C)C[C@H](N)[C@@H](O)CC(=O)O; Isovaleryl = CC(C)CC(=O)*

Legend:
PC12 cells = test: Effect of extracellular zinc on cultured PC12 cells (APP by Western blot); format: cell-based; details: 48 hr
Description: 10^6 PC12 cells were plated for 24 hr in the presence of Dulbecco's modified Eagle's medium (DMEM, N2) supplemented with 8% fetal calf serum (FCS). The medium was then removed and replaced with DMEM±2 to 50 μM ZnCl2 or another salt, and no FCS. Cells and media were harvested 48 hr later and aliquots of media, cell cytosol and membrane (following lysis and ultracentrifugation) were assayed for APP by Western blotting with mAb 22C11.

[1] = dot-blot ^65Zn^2+ binding to synthetic peptides (putative zinc-binding domain of APP); details: for ability to bind ^65Zn^2+: 16 μg peptide dot-blotted
Description: 16 μg of the synthesized peptide […], representing residues 181-214 of APP695 (or residues 181-200), or 16 μg of control peptide, was dissolved in 200 μl of blocking buffer (50 mM Tris-HCl, 1 mM MnCl2 10 mM β-mercaptoethanol, 20% methanol, pH 7.4) and dot-blotted onto PVDF (Immobilon-P, Millipore, Befored, Mass.) which had been pre-wetted with methanol. The blot was then incubated for 30 mins at 20° C. with 100,000 CPM of ^65Zn^2+ in blocking buffer, in the presence or absence of various concentrations of competing unlabeled Zn^2+ or other divalent cations. After incubation the dot-blot was washed three times with 200 μl of blocking buffer without MnCl2, the dot was excised and placed in 10 ml of scintillant and assayed by β-counting.

APP-degrading protease = test: Assay of APP-degrading protease (Zn^2+-enhanced degradation of plasma 130 kDa APP); format: biochemical, human
[2] = test system: human brain 130/110 kDa APP; test: ^65Zn binding to human brain 130/110 kDa APP (time course, competition, Scatchard); details: for ^65Zn label competed off APP (of Bmax): unlabelled metal ion at 20 μM; for shift of competition curve relative to the Zn^2+ competition curve: competition for ^65Zn binding
Text: FIG. 4 is a graphical representation showing a time course analysis of ^65Zn binding to human brain 130/110 kDa APP. Amyloid protein precursor (APP) was purified according to the method in Moir et al. (1992). The preparation of purified 130 and 110 kDa APP was derived from human brain membrane extracts and contained the full-length precursor with carboxyl terminus intact but lacked the 17 residue signal peptide. The 130 and 110 kDa proteins were apparent in equal ratios on silver staining following polyacrylamide gel electrophoresis and were the only bands visible. The identity of these two proteins was confirmed by Western blots with monoclonal antibody 22C11 (which recognises an amino terminal epitope on APP), and by amino terminal sequencing. The protein concentration of the APP preparation was determined by amino acid analysis. Aliquots of APP (90 ng, =1.1 pmole, assuming the average amino acid formula weight of APP is =80 kDa) were incubated at 20° C. for the times indicated. Incubations (50 μl) were performed in 150 mM NaCl, 50 mM Tris-Hcl, pH 7.4 in the presence of 10^6 cpm of ^65Zn (175 nM). The incubation solution was then applied to a 1.1 ml bed volume Sephadex G25 (Pharmacia, Uppsala, Sweden) column pre-equilibrated with 150 mM NaCl, 50 mM Tris-HCl, pH 7.4 and allowed to settle before being desalted with 645 μl of the Equilibration buffer. […] The desalted protein was collected directly into counting tubes containing 10 ml aqueous counting scintillant. Less than two minutes was required to complete the desalting. The amount of ^65Zn bound to desalted APP was determined by counting the collected sample in a beta-counter set to the broadest channel. Counting was determined to be 51% efficient. The values shown are means±SD of n≧3 readings.
FIG. 5 is a graphical representation showing a competition analysis of ^65Zn binding to human brain 130/110 kDa APP. Aliquots of APP were incubated for 30 minutes with ^65Zn as in FIG. 4. The binding of the labelled Zn^2+ to APP was subjected to competition with unlabelled Zn^2+ in the form of the chloride salt. Data shown indicate the competition curves generated at pH 6.4 and 7.4. The binding of Zn^2+ to APP deteriorated at the lower pH (=45% of Bmax, pH 7.4). The values are means±SEM of n≧3 readings. The curves illustrated are typical of three experiments.
FIG. 6 is a graphical representation depicting a Scatchard analysis of ^65Zn binding to human brain 130/110 kDa APP.
Binding analysis was performed as follows: Aliquots of APP (90 ng, =1.1 pmole, assuming the average amino acid formula mass of APP is =80 kDa) were incubated at 20° C. Incubations (50 μl) were performed in 150 mM NaCl, 50 mM Tris-HCl, pH 7.4 in the presence of 10^6 CPM of ^65Zn (175 nM). The incubation solution was then applied to a 1.1 ml bed volume Sephadex G25 (Pharmacia, Uppsala, Sweden) column pre-equilibrated with 150 mM NaCl, 50 mM Tris-HCl, pH 7.4 and allowed to settle before being desalted with 645 μl of the equilibration buffer. […] The deslated protein was collected directly into counting tubes containing 10 ml aqueous counting scintillant (ACSII, Amersham). Less than two minutes was required to complete the desalting. The amount of ^65Zn bound to desalted APP was determined by counting the collected sample in a beta-counter set to the broadest channel. Counting was determined to be 51% efficient. The binding of the labelled Zn^2+ to APP was subjected to competition with unlabelled Zn^2+ and other metal chloride salts.

[3] = test system: human brain full-length APP; test: ^125I-APP binding to heparin-Sepharose; details: for effect on profile of ^125I-APP elution from heparin-Sepharose: Co^2+ at 75 μM
Description: 100 kDa human brian full-length APP was iodinated by the Chloramine-T method. Iodinated APP (^125I-APP) was then separated from labelling reagents by Sephacryl G25 chromatography.
The column was then washed with 6 ml buffer 1 and the APP eluted with aliquots of high-NaCl buffers.

[4] = test system: human brain membrane-derived APP; test: trypsin digestion of human brain membrane-derived APP, Western blot with 22C11; format: biochemical
Text: The proteolytic activity of trypsin (Boehringer, Mannheim) was studied to determine whether it was modulated by a range of doses of heparin (Sigma) and ZnCl2. […] Western blots for APP using the APP binding monoclonal antibody 22C11 were used to monitor the progression of the proteolytic reaction and to detect breakdown products.

trypsin = test: tryptic activity on fluorogenic substrate Z-F-R-AMC; format: biochemical; details: range of doses
[5] = young adult control preparation, two hours at 37° C., 20 μM ZnCl2

human brain membrane-derived APP, sequence (P05067 18-288 limits assumed): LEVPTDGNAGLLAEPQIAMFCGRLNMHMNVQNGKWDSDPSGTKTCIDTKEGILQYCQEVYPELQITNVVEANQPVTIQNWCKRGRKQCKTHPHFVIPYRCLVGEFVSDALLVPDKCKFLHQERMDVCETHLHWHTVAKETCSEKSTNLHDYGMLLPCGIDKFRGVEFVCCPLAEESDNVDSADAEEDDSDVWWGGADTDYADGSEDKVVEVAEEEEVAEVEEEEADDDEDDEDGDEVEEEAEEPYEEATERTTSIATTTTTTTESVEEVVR

[Cl][Cu] [cuprous chloride, reference compound]
effect on APP released into the media compared with zinc (PC12 cells): far smaller stimulatory effects

GVEFVCCPLAEESDNVDSADAEEDDSDVWWGGAD [residues 181-214 of APP]
ability to bind ^65Zn^2+ [1]: able to bind Zn^2+ in a saturable and specific manner

residues 189-220 of APP695: synthetic peptide lacking the cysteine residues at positions 186/187 (LAEESDNVDSADAEEDDSDVWWGGADTDYADG; APP695; UniProt P05067 189-220, looked up, fragment)
amount of ^65Zn^2+ binding relative to same quantity of 181-214 peptide [1]: approximately 15%

CC(C)CC(=O)N[C@H](C(=O)N[C@H](C(=O)N[C@@H](CC(C)C)[C@@H](O)CC(=O)N[C@@H](C)C(=O)N[C@@H](CC(C)C)[C@@H](O)CC(=O)O)C(C)C)C(C)C [pepstatin A] (Isovaleryl-VV[Sta]A[Sta]-OH)
influence on Zn^2+-enhanced APP proteolysis (APP-degrading protease; […]): Neither Al3Cl, the cysteine-protease inhibitor N-ethyl maleimide, nor the acid-protease inhibitor pepstatin A influenced the reaction

residues 645-655: peptide representing another region of the APP molecule (KTEEISEVKMD; UniProt P05067 662-672, looked up, fragment)
ability to bind ^65Zn^2+ [1]: unable to bind Zn^2+

carboxyamidomethylated 181-214 peptide: the 181-214 peptide where the cysteines had been modified by carboxyamidomethylation
amount of ^65Zn^2+ binding relative to same quantity of 181-214 peptide [1]: approximately 15%

aprotinin
influence on Zn^2+-enhanced APP proteolysis (APP-degrading protease; [5]): completely inhibited

[Cl][Al]([Cl])[Cl] [Al^3+]
^65Zn label competed off APP (of Bmax) [2]: 60% | increase in ^125I-APP recovery in the 500-2000 mM NaCl fraction [3]: approximately 4.5 fold | effect on profile of ^125I-APP elution from heparin-Sepharose [3]: decreased the recovery of ^125I-APP except in the 500-2000 mM NaCl fraction

renin
ability to bind ^65Zn^2+ [1]: unable to bind Zn^2+

CCN1C(=O)C=CC1=O [N-ethyl maleimide, N-ethylmaleimide]
influence on Zn^2+-enhanced APP proteolysis (APP-degrading protease; [5]): Neither Al3Cl, the cysteine-protease inhibitor N-ethyl maleimide, nor the acid-protease inhibitor pepstatin A influenced the reaction

[Cu+2] [Cu^2+, reference compound]
^65Zn label competed off APP (of Bmax) [2]: 60%

Insulin B chain: positive control
ability to bind ^65Zn^2+ [1]: bound ^65Zn^2+

[Ca+2].[Cl-].[Cl-] [Ca^2+, reference compound]
shift of competition curve relative to the Zn^2+ competition curve [2]: shifted greater than two log units to the right | effect on profile of ^125I-APP elution from heparin-Sepharose [3]: did not alter the profile of ^125I-APP elution

residues 422-433: peptide representing another region of the APP molecule (VESLEQEAANER; UniProt P05067 439-450, looked up, fragment)
ability to bind ^65Zn^2+ [1]: unable to bind Zn^2+

O=C(O)CN(CCN(CC(=O)O)CC(=O)O)CC(=O)O [EDTA, ethylene diamine tetra acetic acid]
influence on Zn^2+-enhanced APP proteolysis (APP-degrading protease; [5]): completely inhibited

Insulin A chain: control peptide
ability to bind ^65Zn^2+ [1]: unable to bind Zn^2+

residues 581-601: peptide representing another region of the APP molecule (TETKTTVELLPVNGEFSLDDL; UniProt P05067 598-618, looked up, fragment)
ability to bind ^65Zn^2+ [1]: unable to bind Zn^2+

residues 181-200 of APP: synthetic peptide representing about residues 181-200 of APP (SADAEEDDSDVWWGGADTDY; UniProt P05067 198-217, looked up, fragment)
ability to bind ^65Zn^2+ [1]: bind zinc in a specific and saturable manner

[Cl-].[Cl-].[Mg+2] [Mg^2+, reference compound]
shift of competition curve relative to the Zn^2+ competition curve [2]: shifted greater than two log units to the right | effect on profile of ^125I-APP elution from heparin-Sepharose [3]: did not alter the profile of ^125I-APP elution

[Co+2] [Co^2+, reference compound]
^65Zn label competed off APP (of Bmax) [2]: 70% | effect on profile of ^125I-APP elution from heparin-Sepharose [3]: increased the recovery of ^125I-APP in the 100-500 and 500-2000 mM NaCl fractions

heparin [reference compound]
influence on Zn^2+-enhanced APP proteolysis (APP-degrading protease; [5]): completely inhibited | concentration at which protective effect saturated [4]: 10 µM | heparin concentration causing marked reduction in rate and degree of brain APP degradation by trypsin ([4]; trypsin 1:64, one hour at 37° C.): 100 nM | effect on tryptic activity (trypsin): left tryptic activity unaltered

[Cl][Fe][Cl] [FeCl2, reference compound]
effect on APP released into the media compared with zinc (PC12 cells): had a similar effect

[Cl][Al]([Cl])[Cl] [Al3Cl, reference compound]
influence on Zn^2+-enhanced APP proteolysis (APP-degrading protease; [5]): Neither Al3Cl, the cysteine-protease inhibitor N-ethyl maleimide, nor the acid-protease inhibitor pepstatin A influenced the reaction | effect on APP released into the media compared with zinc (PC12 cells): far smaller stimulatory effects

B1: soya bean trypsin inhibitor (protein, UniProt P01070 25-205, looked up)
Trypsin inhibitor A: DFVLDNEGNPLENGGTYYILSDITAFGGIRAAPTGNERCPLTVVQSRNELDKGIGTIISSPYRIRFIAEGHPLSLKFDSFAVIMLCVGIPTEWSVVEDLPEGPAVKIGENKDAMDGWFRLERVSDDEFNNYKLVFCPQQAEDDKCGDIGISIDHDDGTRRLVVSKNKPLVVQFQKLDKESL
influence on Zn^2+-enhanced APP proteolysis (APP-degrading protease; [5]): completely inhibited

B2: α1-antichymotrypsin (protein, UniProt P01011 24-423, looked up)
Alpha-1-antichymotrypsin: HPNSPLDEENLTQENQDRGTHVDLGLASANVDFAFSLYKQLVLKAPDKNVIFSPLSISTALAFLSLGAHNTTLTEILKGLKFNLTETSEAEIHQSFQHLLRTLNQSSDELQLSMGNAMFVKEQLSLLDRFTEDAKRLYGSEAFATDFQDSAAAKKLINDYVKNGTRGKITDLIKDLDSQTMMVLVNYIFFKAKWEMPFDPQDTHQSRFYLSKKKWVMVPMMSLHHLTIPYFRDEELSCTVVELKYTGNASALFILPDQDKMEEVEAMLLPETLKRWRDSLEFREIGELYLPKFSISRDYNLNDILLQLGIEEAFTSKADLSGITGARNLAVSQVVHKAVLDVFEEGTEASAATAVKITLLSALVETRTIVRFNRPFLMIIVPTDTQNIFFMSKVTNPKQA
influence on Zn^2+-enhanced APP proteolysis (APP-degrading protease; [5]): incompletely inhibited
